Results taken from US20190022152A1, “MICROBIOME RESPONSE TO AGENTS” (Yeda Research and Development Co., Ltd., priority 2014, published 2019).
Like-named read-outs stand apart in the source and are kept apart here.

Tests used:
[1] = test system: fecal microbiota; conditions: for Fold change (week 11/week 0) in relative species abundance: fecal samples, 11 weeks consumption
Procedure: Illumina sequence reads were mapped to the human microbiome reference genome database of the Human Microbiome Project [www(dot)hmpdacc(dot)org/HMREFG/^32], and to a gut microbial gene catalogue^33 using GEM mapper^58 with the following parameters: • -m 3 -s 0 -q offset-33 -gem-quality-threshold 26
Microbial species abundance was measured as the fraction of reads that mapped to a single species in the database. An EM algorithm adapted from Pathoscope^59 was employed to determine the correct assignment of reads that mapped to more than one species. We considered only species for which at least 10% of the genome was covered (each coverage bin was 10,000-bp long) in at least one of the growth conditions (saccharin, water, or glucose). Reads mapped to the gut microbial gene catalogue were assigned a KEGG^34,35 ID according to the mapping available with the catalogue. Genes were subsequently mapped to KEGG pathways, and only pathways whose gene coverage was above 0.2 were included.

[2] = cited from earlier work

O=C1NS(=O)(=O)c2ccccc21 [saccharin]
changes in microbial relative species abundance ([1]; 11 weeks commercial saccharin vs glucose or water, F-test p<10^−10): largest changes
Fold change (week 11/week 0) in relative species abundance ([1]; Symbol BACT_9, Number 996): 0.65
Fold change (week 11/week 0) in relative species abundance ([1]; Symbol BACT_22, Number 639): 0.36
Fold change (week 11/week 0) in relative species abundance ([1]; Symbol BACT_38, Number 780): 0.50
Fold change (week 11/week 0) in relative species abundance ([1]; Symbol BACT_49, Number 420): 0.02
Fold change (week 11/week 0) in relative species abundance ([1]; Symbol BACT_60, Number 752): 0.71
Fold change (week 11/week 0) in relative species abundance ([1]; Symbol BACT_65, Number 918): 6.73
Fold change (week 11/week 0) in relative species abundance ([1]; Symbol BACT_70, Number 863): 9.41
Fold change (week 11/week 0) in relative species abundance ([1]; Symbol BACT_85, Number 934): 0.45
Fold change (week 11/week 0) in relative species abundance ([1]; Symbol BACT_142, Number 843): 0.42
Fold change (week 11/week 0) in relative species abundance ([1]; Symbol BACT_170, Number 883): 0.48
Fold change (week 11/week 0) in relative species abundance ([1]; Symbol BACT_171, Number 748): 0.56
Fold change (week 11/week 0) in relative species abundance ([1]; Symbol BACT_172, Number 768): 1.03
Fold change (week 11/week 0) in relative species abundance ([1]; Symbol BACT_178, Number 921): 0.28
Fold change (week 11/week 0) in relative species abundance ([1]; Symbol BACT_181, Number 767): 0.40
Fold change (week 11/week 0) in relative species abundance ([1]; Symbol BACT_185, Number 633): 8.79
Fold change (week 11/week 0) in relative species abundance ([1]; Symbol BACT_189, Number 636): 1.92
Fold change (week 11/week 0) in relative species abundance ([1]; Symbol BACT_192, Number 995): 0.36
Fold change (week 11/week 0) in relative species abundance ([1]; Symbol BACT_194, Number 846): 0.51
Fold change (week 11/week 0) in relative species abundance ([1]; Symbol BACT_195, Number 523): 0.40
Fold change (week 11/week 0) in relative species abundance ([1]; Symbol BACT_196, Number 395): 12.66
Fold change (week 11/week 0) in relative species abundance ([1]; Symbol BACT_225, Number 953): 0.44
Fold change (week 11/week 0) in relative species abundance ([1]; Symbol BACT_258, Number 620): 0.55
Fold change (week 11/week 0) in relative species abundance ([1]; Symbol BACT_260, Number 1443): 0.55
Fold change (week 11/week 0) in relative species abundance ([1]; Symbol BACT_300, Number 769): 0.50
Fold change (week 11/week 0) in relative species abundance ([1]; Symbol BACT_371, Number 960): 2.13
Fold change (week 11/week 0) in relative species abundance ([1]; Symbol BACT_374, Number 805): 0.34
Fold change (week 11/week 0) in relative species abundance ([1]; Symbol BACT_392, Number 915): 0.66
Fold change (week 11/week 0) in relative species abundance ([1]; Symbol BACT_393, Number 932): 0.53
Fold change (week 11/week 0) in relative species abundance ([1]; Symbol BACT_397, Number 914): 0.45
Fold change (week 11/week 0) in relative species abundance ([1]; Symbol BACT_409, Number 845): 9.91
Fold change (week 11/week 0) in relative species abundance ([1]; Symbol BACT_413, Number 847): 1.25
Fold change (week 11/week 0) in relative species abundance ([1]; Symbol BACT_418, Number 749): 0.22
Fold change (week 11/week 0) in relative species abundance ([1]; Symbol BACT_419, Number 920): 0.15
Fold change (week 11/week 0) in relative species abundance ([1]; Symbol BACT_420, Number 922): 0.33
Fold change (week 11/week 0) in relative species abundance ([1]; Symbol BACT_424, Number 906): 0.29
Fold change (week 11/week 0) in relative species abundance ([1]; Symbol BACT_449, Number 772): 2.90
Fold change (week 11/week 0) in relative species abundance ([1]; Symbol BACT_463, Number 719): 0.00
Fold change (week 11/week 0) in relative species abundance ([1]; Symbol BACT_496, Number 765): 2.97
Fold change (week 11/week 0) in relative species abundance ([1]; Symbol BACT_499, Number 35): 0.24
Fold change (week 11/week 0) in relative species abundance ([1]; Symbol BACT_511, Number 591): 3.71
Fold change (week 11/week 0) in relative species abundance ([1]; Symbol BACT_535, Number 940): 0.14
Fold change (week 11/week 0) in relative species abundance ([1]; Symbol BACT_539, Number 117): 0.22
Fold change (week 11/week 0) in relative species abundance ([1]; Symbol BACT_551, Number 907): 0.62
Fold change (week 11/week 0) in relative species abundance ([1]; Symbol BACT_572, Number 963): 0.70
Fold change (week 11/week 0) in relative species abundance ([1]; Symbol BACT_586, Number 849): 0.70
Fold change (week 11/week 0) in relative species abundance ([1]; Symbol BACT_627, Number 886): 0.16
Fold change (week 11/week 0) in relative species abundance ([1]; Symbol BACT_632, Number 871): 3.17
Fold change (week 11/week 0) in relative species abundance ([1]; Symbol BACT_681, Number 125): 0.00
Fold change (week 11/week 0) in relative species abundance ([1]; Symbol BACT_686, Number 1007): 0.00
Fold change (week 11/week 0) in relative species abundance ([1]; Symbol BACT_722, Number 377): 1.88
Fold change (week 11/week 0) in relative species abundance ([1]; Symbol BACT_769, Number 610): 3.38
Fold change (week 11/week 0) in relative species abundance ([1]; Symbol BACT_843, Number 1318): 0.16
Fold change (week 11/week 0) in relative species abundance ([1]; Symbol BACT_850, Number 394): 2.51
Fold change (week 11/week 0) in relative species abundance ([1]; Symbol BACT_852, Number 766): 0.77
Fold change (week 11/week 0) in relative species abundance ([1]; Symbol BACT_855, Number 835): 0.34
Fold change (week 11/week 0) in relative species abundance ([1]; Symbol BACT_890, Number 163): 0.15
Fold change (week 11/week 0) in relative species abundance ([1]; Symbol BACT_913, Number 904): 1.10
Fold change (week 11/week 0) in relative species abundance ([1]; Symbol BACT_915, Number 1315): 10.39
Fold change (week 11/week 0) in relative species abundance ([1]; Symbol BACT_931, Number 1088): 0.53
Fold change (week 11/week 0) in relative species abundance ([1]; Symbol BACT_1001, Number 933): 0.75
Fold change (week 11/week 0) in relative species abundance ([1]; Symbol BACT_1025, Number 751): 0.53
Fold change (week 11/week 0) in relative species abundance ([1]; Symbol BACT_1043, Number 948): 1.08
Fold change (week 11/week 0) in relative species abundance ([1]; Symbol BACT_1083, Number 1008): 0.00
Fold change (week 11/week 0) in relative species abundance ([1]; Symbol BACT_1131, Number 942): 0.34
Fold change (week 11/week 0) in relative species abundance ([1]; Symbol BACT_1311, Number 1259): 0.34
Fold change (week 11/week 0) in relative species abundance ([1]; Symbol BACT_1314, Number 1399): 0.67
Fold change (week 11/week 0) in relative species abundance ([1]; Symbol BACT_1315, Number 1395): 0.46
Fold change (week 11/week 0) in relative species abundance ([1]; Symbol BACT_1321, Number 1255): 3.20
Fold change (week 11/week 0) in relative species abundance ([1]; Symbol BACT_1322, Number 1396): 0.91
Fold change (week 11/week 0) in relative species abundance ([1]; Symbol BACT_1324, Number 1264): 12.01
Fold change (week 11/week 0) in relative species abundance ([1]; Symbol BACT_1348, Number 1311): 9.24
Fold change (week 11/week 0) in relative species abundance ([1]; Symbol BACT_1378, Number 1375): 141.18
Fold change (week 11/week 0) in relative species abundance ([1]; Symbol BACT_1427, Number 1266): 0.00
Fold change (week 11/week 0) in relative species abundance ([1]; Symbol BACT_1442, Number 1400): 2.16
Fold change (week 11/week 0) in relative species abundance ([1]; Symbol BACT_1457, Number 1337): 0.23
Fold change (week 11/week 0) in relative species abundance ([1]; Symbol BACT_1496, Number 1321): 2.65
Fold change (week 11/week 0) in relative species abundance ([1]; Symbol BACT_1501, Number 1331): 0.17
Fold change (week 11/week 0) in relative species abundance ([1]; Symbol BACT_1526, Number 1227): 0.07
Fold change (week 11/week 0) in relative species abundance ([1]; Symbol BACT_1555, Number 1469): 0.21
Fold change (week 11/week 0) in relative species abundance ([1]; Symbol BACT_1569, Number 1462): 0.30
Fold change (week 11/week 0) in relative species abundance ([1]; Symbol BACT_1595, Number 1533): 0.00
Fold change (week 11/week 0) in relative species abundance ([1]; Symbol BACT_1596, Number 1502): 0.12
Fold change (week 11/week 0) in relative species abundance ([1]; Symbol BACT_1656, Number 1503): 0.12
Fold change (week 11/week 0) in relative species abundance ([1]; Symbol BACT_3004, Number 5797): 11.92
Fold change (week 11/week 0) in relative species abundance ([1]; Symbol BACT_3005, Number 5799): 1.01
Fold change (week 11/week 0) in relative species abundance ([1]; Symbol BACT_3007, Number 5798): 1.89
Fold change (week 11/week 0) in relative species abundance ([1]; Symbol BACT_3024, Number 5841): 0.02
Fold change (week 11/week 0) in relative species abundance ([1]; Symbol BACT_3045, Number 5818): 0.01
Fold change (week 11/week 0) in relative species abundance ([1]; Symbol BACT_3056, Number 5836): 0.00
Fold change (week 11/week 0) in relative species abundance ([1]; Symbol BACT_3058, Number 5816): 0.11
Fold change (week 11/week 0) in relative species abundance ([1]; Symbol BACT_3060, Number 5821): 0.00
Fold change (week 11/week 0) in relative species abundance ([1]; Symbol BACT_3062, Number 5800): 0.99
Fold change (week 11/week 0) in relative species abundance ([1]; Symbol BACT_3085, Number 5842): 0.03
Fold change (week 11/week 0) in relative species abundance ([1]; Symbol BACT_3092, Number 5793): 2.71
Fold change (week 11/week 0) in relative species abundance ([1]; Symbol BACT_4040, Number 5769): 1.16
Fold change (week 11/week 0) in relative species abundance ([1]; Symbol BACT_4042, Number 5770): 0.04
Fold change (week 11/week 0) in relative species abundance ([1]; Symbol EUKY_22, Number 1758): 0.45
Fold change (week 11/week 0) in relative species abundance ([1]; Symbol EUKY_141, Number 1875): 0.53
Fold change (week 11/week 0) in relative species abundance ([1]; Symbol EUKY_222, Number 1954): 0.49
Fold change (week 11/week 0) in relative species abundance ([1]; Symbol V1RL3522, Number 3522): 0.02
FDA defined ADI (acceptable daily intake) in humans ([2]; humans): 5 mgkg^−1
reported toxic dose ([2]; literature values): 6.3 gkg^−1
